Laboratory results reported in PubChem BioAssay AID248 (DTP/NCI, 2004).
Toxic doses and inconclusive results are not listed. Cut-off read from the data, not from the text of the source: active = T/C of 150% or more; inactive = T/C below 125%.

System: L1210 leukemia ip in BDF1 mice, survival T/C
Experiment: NCI In Vivo Anticancer Drug Screen. Data for tumor model L1210 Leukemia (intraperitoneal) in B6D2F1 (BDF1) mice
Conditions: endpoint: mean survival time, higher = longer survival
Method in brief: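 Tumor was transplanted into mice, which were then dosed with test compound or vehicle alone. Survival was recorded for each group, and the treated figure was expressed relative to the control figure.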

[1] = dose: 100.0 mg/kg/injection, schedule: Q01DX001 (ip), vehicle: carboxymethylcellulose (CMC)
[2] = dose: 200.0 mg/kg/injection, schedule: Q01DX001 (ip), vehicle: carboxymethylcellulose (CMC)
[3] = dose: 400.0 mg/kg/injection, schedule: Q01DX001 (ip), vehicle: carboxymethylcellulose (CMC)
[4] = dose: 100.0 mg/kg/injection, schedule: Q01DX009 (ip), vehicle: saline with Tween-80
[5] = dose: 200.0 mg/kg/injection, schedule: Q01DX009 (ip), vehicle: saline with Tween-80
[6] = dose: 100.0 mg/kg/injection, schedule: Q01DX009 (ip), vehicle: saline
[7] = dose: 200.0 mg/kg/injection, schedule: Q01DX009 (ip), vehicle: saline
[8] = dose: 400.0 mg/kg/injection, schedule: Q01DX009 (ip), vehicle: saline
[9] = dose: 100.0 mg/kg/injection, schedule: Q04DX003 (ip), vehicle: saline with Tween-80
[10] = dose: 200.0 mg/kg/injection, schedule: Q04DX003 (ip), vehicle: saline with Tween-80

Measured: T/C

C#C/C(=N\Nc1ccc([N+](=O)[O-])cc1[N+](=O)[O-])c1ccccc1
inactive: dose: 75.0 mg/kg/injection, schedule: Q04DX002 (ip), vehicle: saline with Tween-80 91 % of control | dose: 150.0 mg/kg/injection, schedule: Q04DX002 (ip), vehicle: saline with Tween-80 102 % of control | dose: 300.0 mg/kg/injection, schedule: Q04DX002 (ip), vehicle: saline with Tween-80 88 % of control

C[N+](C)(C)c1ccc(/C(C#N)=N/O)cc1
inactive: dose: 12.5 mg/kg/injection, schedule: Q01DX009 (ip), vehicle: Klucel (hydroxypropylcellulose) (HPC) 101 % of control | dose: 25.0 mg/kg/injection, schedule: Q01DX009 (ip), vehicle: Klucel (hydroxypropylcellulose) (HPC) 100 % of control

O=c1ccc2c([nH]1)CCCCC2
inactive: dose: 100.0 mg/kg/injection, schedule: Q04DX003 (ip), vehicle: Klucel (hydroxypropylcellulose) (HPC) 106 % of control | dose: 200.0 mg/kg/injection, schedule: Q04DX003 (ip), vehicle: Klucel (hydroxypropylcellulose) (HPC) 100 % of control | dose: 400.0 mg/kg/injection, schedule: Q04DX003 (ip), vehicle: Klucel (hydroxypropylcellulose) (HPC) 95 % of control

O=C(O/C(=N\N1N=NC(c2ccccc2)C1c1ccccc1)c1ccccc1)c1ccccc1 (stereo not drawn)
inactive: [1] 87 % of control | [2] 89 % of control | [3] 89 % of control

O=C(O)CSc1ccc(Cl)cc1
inactive: dose: 50.0 mg/kg/injection, schedule: Q01DX009 (ip), vehicle: saline with Tween-80 100 % of control | [4] 93 % of control | [5] 94 % of control

CC#CCOCC1CNC(=O)O1 (stereo not drawn)
inactive: dose: 25.0 mg/kg/injection, schedule: Q01DX009 (ip), vehicle: saline 98 % of control | dose: 25.0 mg/kg/injection, schedule: Q04DX003 (ip), vehicle: saline 105 % of control | dose: 50.0 mg/kg/injection, schedule: Q01DX009 (ip), vehicle: saline 93 % of control | dose: 50.0 mg/kg/injection, schedule: Q04DX003 (ip), vehicle: saline 97 % of control | [6] 93 % of control | dose: 100.0 mg/kg/injection, schedule: Q04DX003 (ip), vehicle: saline 97 % of control | [7] 102 % of control | dose: 200.0 mg/kg/injection, schedule: Q04DX003 (ip), vehicle: saline 103 % of control | [8] 104 % of control | dose: 400.0 mg/kg/injection, schedule: Q04DX003 (ip), vehicle: saline 103 % of control

COC(=O)C1CC2C(Cl)=C(Cl)C1(Cl)C2(Cl)Cl (stereo not drawn)
inactive: [6] 107 % of control | [7] 123 % of control | [8] 102 % of control

CCCOC(=O)c1cncn1C(C)c1ccccc1 (stereo not drawn)
inactive: dose: 25.0 mg/kg/injection, schedule: Q01DX001 (ip), vehicle: saline 98 % of control | dose: 50.0 mg/kg/injection, schedule: Q01DX001 (ip), vehicle: saline 96 % of control | dose: 100.0 mg/kg/injection, schedule: Q01DX001 (ip), vehicle: saline 94 % of control

CC(C)(C)CNC(=S)Nc1ccccc1
inactive: dose: 9.5 mg/kg/injection, schedule: Q01DX001 (ip), vehicle: other 98 % of control | dose: 19.0 mg/kg/injection, schedule: Q01DX001 (ip), vehicle: other 102 % of control | dose: 38.0 mg/kg/injection, schedule: Q01DX001 (ip), vehicle: other 104 % of control | dose: 75.0 mg/kg/injection, schedule: Q01DX001 (ip), vehicle: other 90 % of control

CC(C)CC1NC(=O)N(C)C1=O (stereo not drawn)
inactive: dose: 75.0 mg/kg/injection, schedule: Q01DX001 (ip), vehicle: carboxymethylcellulose (CMC) 95 % of control | dose: 150.0 mg/kg/injection, schedule: Q01DX001 (ip), vehicle: carboxymethylcellulose (CMC) 100 % of control | dose: 300.0 mg/kg/injection, schedule: Q01DX001 (ip), vehicle: carboxymethylcellulose (CMC) 100 % of control

N#CCC1CC=CCC1 (stereo not drawn)
inactive: [1] 98 % of control | [2] 98 % of control | [3] 104 % of control

CC(OC1OC(CO)C(OC2OC(CO)C(O)C(O)C2O)C(O)C1O)C1CC(O)C2C3CCC4=CC(=O)CCC4(C)C3CCC12C (stereo not drawn)
inactive: dose: 25.0 mg/kg/injection, schedule: Q04DX002 (ip), vehicle: saline 104 % of control | dose: 50.0 mg/kg/injection, schedule: Q04DX002 (ip), vehicle: saline 107 % of control | dose: 100.0 mg/kg/injection, schedule: Q04DX002 (ip), vehicle: saline 96 % of control

CC(=O)Nc1cc(C(=O)O)cc(C(F)(F)F)c1
inactive: [4] 96 % of control | [9] 96 % of control | [5] 100 % of control | [10] 102 % of control | dose: 400.0 mg/kg/injection, schedule: Q01DX009 (ip), vehicle: saline with Tween-80 97 % of control | dose: 400.0 mg/kg/injection, schedule: Q04DX003 (ip), vehicle: saline with Tween-80 94 % of control

CC[PH+]1c2ccccc2-c2ccccc21.CC[PH+]1c2ccccc2-c2ccccc21.CC[PH+]1c2ccccc2-c2ccccc21.[Br][Ni][Br]
inactive: dose: 12.5 mg/kg/injection, schedule: Q04DX003 (ip), vehicle: saline with Tween-80 98 % of control | dose: 25.0 mg/kg/injection, schedule: Q04DX003 (ip), vehicle: saline with Tween-80 98 % of control | dose: 50.0 mg/kg/injection, schedule: Q04DX003 (ip), vehicle: saline with Tween-80 102 % of control

Cc1n[nH]c(=S)[nH]c1=S
inactive: [9] 97 % of control

O=c1cnc2ccccc2[nH]1
inactive: [9] 108 % of control | [10] 97 % of control

O=C(Nc1ccc(F)c([N+](=O)[O-])c1)NC(Cc1ccccc1)c1ccccc1 (stereo not drawn)
inactive: dose: 100.0 mg/kg/injection, schedule: Q01DX009 (ip), vehicle: Klucel (hydroxypropylcellulose) (HPC) 98 % of control | dose: 200.0 mg/kg/injection, schedule: Q01DX009 (ip), vehicle: Klucel (hydroxypropylcellulose) (HPC) 101 % of control | dose: 400.0 mg/kg/injection, schedule: Q01DX009 (ip), vehicle: Klucel (hydroxypropylcellulose) (HPC) 104 % of control
